Source: US20090312437A1, “Anthraquinones and Analogs from Rhuem palmatum for Treatment of Estrogen Receptor Beta-Mediated Conditions” (Bionovo, Inc., A Delaware Corporation, priority 2008, published 2009)

Columns and labels:
ERα = target: T1, ERα (Homo sapiens, UniProt P03372); test: ERE-tk-Luc luciferase transient transfection assay in U2OS cells with ERα; format: cell-based; settings: ERα expression vector
T1 construct: expressed in transfected cells; host or cells: U2OS (human osteosarcoma)
T1 sequence (P03372 1-595): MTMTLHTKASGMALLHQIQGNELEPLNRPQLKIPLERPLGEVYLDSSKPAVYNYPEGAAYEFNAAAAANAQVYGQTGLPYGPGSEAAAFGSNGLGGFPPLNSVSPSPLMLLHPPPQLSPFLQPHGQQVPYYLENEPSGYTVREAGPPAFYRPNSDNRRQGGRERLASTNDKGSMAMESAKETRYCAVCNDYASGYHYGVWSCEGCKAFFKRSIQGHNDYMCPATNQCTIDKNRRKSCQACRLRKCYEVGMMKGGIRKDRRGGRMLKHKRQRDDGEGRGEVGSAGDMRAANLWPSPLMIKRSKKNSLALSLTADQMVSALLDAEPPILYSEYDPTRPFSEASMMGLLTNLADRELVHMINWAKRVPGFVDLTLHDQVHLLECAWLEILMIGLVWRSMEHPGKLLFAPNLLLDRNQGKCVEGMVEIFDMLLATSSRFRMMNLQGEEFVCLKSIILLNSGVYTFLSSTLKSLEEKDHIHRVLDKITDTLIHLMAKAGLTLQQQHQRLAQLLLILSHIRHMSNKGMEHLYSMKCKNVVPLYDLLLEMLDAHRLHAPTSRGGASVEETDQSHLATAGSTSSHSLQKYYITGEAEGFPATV
Method: (§2) The isolated and two purchased (4, 5) anthraquinones, were tested for their ERα and ERβ activities using transient transfection assays in the human U2OS bone cell line with an estrogen response element linked to the luciferase reporter gene (ERE-tkLuc).
(§3) U2OS osteosarcoma cells were cotransfected with a classic ERE upstream of a minimal thymidine kinase (tk) promoter (ERE-tk-Luc) and expression vectors for human ERα or ERβ.

[1] = system: MCF-7 breast cancer cells; test: MCF-7 kidney capsule graft tumor formation in nude mice; format: in vivo, CD-1/Nude female mice; settings: MCF-7 grafts, 28 days, subcutaneous Alzet pump, 2 mg/200 μL for 6, 360 μg/200 μL for estradiol
Method: (§1) The effects of 6 were tested in vivo on breast cancer tumor formation and uterine proliferation. CD-1/Nude female mice, 40-50 days old at time of grafting were selected. Each mouse received 2 grafts per kidney, 4 grafts total with MCF-7 breast cancer cells in 25 μL collagen per graft. Compound 6 was delivered subcutaneously with a Alzet Osmotic pump filled with 200 μL of 6 for 28 days. […] At the end of 28 days of treatment, all grafts and uteri were isolated, pictures taken, weighed, and fixed in formalin.

uterine proliferation = test: Uterine proliferation in nude mice, 28 days subcutaneous osmotic pump; format: in vivo, CD-1/Nude female mice; settings: subcutaneous Alzet pump, 2 mg/200 μL for 6, 360 μg/200 μL for estradiol
Method: as §1

ERβ [2] = target: T2, ERβ (Homo sapiens, UniProt Q92731); test: Repression of TNF-α activation of TNF-RE tkLuc in U2OS cells with ERβ; format: cell-based; design: expressed in transfected cells; host or cells: U2OS (human osteosarcoma)
T2 sequence (Q92731 whole entry): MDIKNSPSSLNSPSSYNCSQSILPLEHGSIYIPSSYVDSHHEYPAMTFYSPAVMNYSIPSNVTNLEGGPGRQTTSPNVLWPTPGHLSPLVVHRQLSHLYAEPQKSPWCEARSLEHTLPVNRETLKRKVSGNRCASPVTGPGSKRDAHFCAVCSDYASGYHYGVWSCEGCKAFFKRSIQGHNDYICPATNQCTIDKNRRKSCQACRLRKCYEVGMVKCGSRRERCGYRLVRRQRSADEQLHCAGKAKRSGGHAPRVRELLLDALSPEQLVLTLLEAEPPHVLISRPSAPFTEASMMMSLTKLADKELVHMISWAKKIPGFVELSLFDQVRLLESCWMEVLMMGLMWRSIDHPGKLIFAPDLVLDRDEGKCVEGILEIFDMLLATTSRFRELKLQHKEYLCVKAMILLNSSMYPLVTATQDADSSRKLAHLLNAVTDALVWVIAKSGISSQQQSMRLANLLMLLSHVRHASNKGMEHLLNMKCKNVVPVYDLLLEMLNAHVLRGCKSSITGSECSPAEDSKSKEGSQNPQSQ

[3] = five years of therapy; cited from earlier work
[4] = women at high risk for breast cancer; cited from earlier work
ERβ [5] = target: T2, ERβ; test: ERE-tk-Luc luciferase transient transfection assay in U2OS cells with ERβ
Method: as §2, §3

ERβ [6] = target: T2, ERβ; test: ER binding curves (ERβ compared with ERα)

O=C1c2c(O)c(O)c(O)c(O)c2C(=O)c2c(O)c(O)c(O)c(O)c21 [compound 6, octahydroxyanthraquinone]
activation of ERE-tk-Luc in the presence of ERα (ERα): no effect on ERα
tumor formation / proliferation in kidney capsule grafts as compared to control [1]: does not increase breast cancer tumor formation
tumor formation / proliferation in kidney capsule grafts as compared to control ([1]; listed as octahydroxyanthraquinone): suppresses tumor proliferation

C[C@]12CC[C@@H]3c4ccc(O)cc4CC[C@H]3[C@@H]1CC[C@@H]2O [estradiol, reference compound]
uterine proliferation as compared to control (uterine proliferation): stimulates uterine proliferation
repression of TNF-α activity on ERβ (ERβ [2]; data not shown): 100%

CC/C(=C(\c1ccccc1)c1ccc(OCCN(C)C)cc1)c1ccccc1 [tamoxifen]
reduction of mortality from breast cancer [3]: 22%
reduction of the risk of recurrences [3]: 42%
reduction of the risk of primary invasive breast cancer [4]: 49%

aloe-emodin [compound 2]
repression of TNF-α activation of TNF-RE in the presence of ERβ (ERβ [2]): produced repression
ERβ-activation of ERE-tk-luc in the presence of compound and raloxifene (ERβ [5]): attenuated
ERβ-activation of ERE-tk-luc in the presence of compound and tamoxifen (ERβ [5]): attenuated

emodin [compound 1]
ERβ-binding curve as compared to the ERα-binding curve (ERβ [6]): very similar
repression of TNF-α activation of TNF-RE in the presence of ERβ (ERβ [2]): produced repression
ERβ-activation of ERE-tk-luc in the presence of compound and raloxifene (ERβ [5]; listed as Emodin): attenuated
ERβ-activation of ERE-tk-luc in the presence of compound and raloxifene (ERβ [5]; listed as emodin): repressed
ERβ-activation of ERE-tk-luc in the presence of compound and tamoxifen (ERβ [5]; listed as Emodin): attenuated
ERβ-activation of ERE-tk-luc in the presence of compound and tamoxifen (ERβ [5]; listed as emodin): repressed
